In PMC10558427, “A Theobromine Derivative with Anticancer Properties Targeting VEGFR‐2: Semisynthesis, in silico and in vitro Studies” (ChemistryOpen, 2023):

Biological target: T1, VEGFR‐2 (Homo sapiens, UniProt P35968)
T1 construct: gene KDR
Test: in vitro VEGFR-2 inhibition assay (Human VEGFR ELISA kit)
Assay type: biochemical

T1 sequence (P35968 20-1356): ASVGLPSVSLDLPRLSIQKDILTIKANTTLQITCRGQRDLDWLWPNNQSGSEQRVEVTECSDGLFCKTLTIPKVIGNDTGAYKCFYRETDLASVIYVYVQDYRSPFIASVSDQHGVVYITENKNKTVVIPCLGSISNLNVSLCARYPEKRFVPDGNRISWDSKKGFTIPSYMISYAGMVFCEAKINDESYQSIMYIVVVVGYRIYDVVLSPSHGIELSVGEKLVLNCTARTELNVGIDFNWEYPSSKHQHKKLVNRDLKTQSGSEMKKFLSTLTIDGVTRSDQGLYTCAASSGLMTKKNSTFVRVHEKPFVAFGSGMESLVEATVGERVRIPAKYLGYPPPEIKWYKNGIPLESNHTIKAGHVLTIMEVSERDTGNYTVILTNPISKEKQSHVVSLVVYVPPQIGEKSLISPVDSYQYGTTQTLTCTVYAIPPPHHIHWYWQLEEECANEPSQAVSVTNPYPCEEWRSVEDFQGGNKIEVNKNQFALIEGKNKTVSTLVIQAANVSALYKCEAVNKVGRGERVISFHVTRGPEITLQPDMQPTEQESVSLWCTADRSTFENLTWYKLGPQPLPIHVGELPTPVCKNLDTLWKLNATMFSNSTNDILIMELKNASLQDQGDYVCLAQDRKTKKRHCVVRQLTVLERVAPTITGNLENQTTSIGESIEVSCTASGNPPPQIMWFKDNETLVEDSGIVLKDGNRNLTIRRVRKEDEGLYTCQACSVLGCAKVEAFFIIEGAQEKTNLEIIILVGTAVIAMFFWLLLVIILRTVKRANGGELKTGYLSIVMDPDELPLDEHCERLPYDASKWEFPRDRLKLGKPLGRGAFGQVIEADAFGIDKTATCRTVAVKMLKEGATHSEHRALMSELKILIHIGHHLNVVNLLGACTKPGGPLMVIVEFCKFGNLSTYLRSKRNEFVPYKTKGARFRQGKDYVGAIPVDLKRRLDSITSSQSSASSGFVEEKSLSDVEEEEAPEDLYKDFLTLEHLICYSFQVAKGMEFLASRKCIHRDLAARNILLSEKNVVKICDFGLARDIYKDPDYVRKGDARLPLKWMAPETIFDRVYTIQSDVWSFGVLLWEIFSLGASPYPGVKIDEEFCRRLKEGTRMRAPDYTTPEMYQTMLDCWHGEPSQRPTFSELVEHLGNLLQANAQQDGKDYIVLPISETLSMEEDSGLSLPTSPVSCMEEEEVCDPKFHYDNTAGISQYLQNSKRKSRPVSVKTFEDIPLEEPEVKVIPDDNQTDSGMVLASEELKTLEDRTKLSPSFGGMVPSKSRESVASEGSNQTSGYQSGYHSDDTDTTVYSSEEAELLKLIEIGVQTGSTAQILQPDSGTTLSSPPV

IC50: 69 ± 3 nM
SMILES: Cn1cnc2c1c(=O)n(CC(=O)Nc1ccc(C(=O)Nc3ccc(F)cc3)cc1)c(=O)n2C [T-1-AFPB, 4‐(2‐(3,7‐Dimethyl‐2,6‐dioxo‐2,3,6,7‐tetrahydro‐1H‐purin‐1‐yl)acetamido)‐N‐(4‐fluorophenyl)benzamide]
